Values quoted from earlier work as cited in patent US8785470B2, “Heterocyclic compounds and uses thereof” (Infinity Pharmaceuticals, Inc., priority 2011, dated 2014).

Legend:
[1] = PBS at pH 7.4, 37° C., 24 hours; cited from earlier work
[2] = tested on: leukemic cells from p190 transduced cultures; settings: about 70 mg/kg twice daily; cited from earlier work
[3] = tested on: NZB/W model; settings: profilactic and therapeutic model; reductions in auto-antibody production, kidney damage, improvements in survival; cited from earlier work
[4] = tested on: B6.Slez.Sle3z model; settings: cited from earlier work

In the case of `O=C(O)CCCc1ccc(N(CCCl)CCCl)cc1` [chlorambucil], the chemical stability [1] is listed as “largely hydrolyzed”.

For `Cc1ccc(NC(=O)c2ccc(CN3CCN(C)CC3)cc2)cc1Nc1nccc(-c2cccnc2)n1` [imatinib], the leukemogenesis [2] is given as “delay but not cure leukemogenesis”.

In the case of `CC(C)C[C@H](NC(=O)[C@H](Cc1ccccc1)NC(=O)c1cnccn1)B(O)O` [Bortezimib, bortezomib], the “blocking disease in the NZB/W model” value [3] is given as “effective at blocking disease”.

For `CO[C@H]1C[C@@H]2CC[C@@H](C)[C@@](O)(O2)C(=O)C(=O)N2CCCC[C@H]2C(=O)O[C@H]([C@H](C)C[C@@H]2CC[C@@H](OCCO)[C@H](OC)C2)CC(=O)[C@H](C)/C=C(\C)[C@@H](O)[C@@H](OC)C(=O)[C@H](C)C[C@H](C)/C=C/C=C/C=C/1C` [RAD001, everolimus], the lupus symptoms [4] is given as “ameliorate lupus symptoms”.
